Measured values published in patent US8937183B2, “Detection of hydrogen peroxide” (Promega Corporation, priority 2011, dated 2015).

Experiments:
Jurkat cells = experiment: Detection of reactive oxygen generation in cells treated with menadione or 4-aminobiphenyl, Jurkat; format: cell-based; details: for averaged bioluminescence: 60 minutes 37° C.
Experimental: (§1) In this example, various compounds shown to react with hydrogen peroxide were incubated with cells treated with menadione and 4-aminobiphenyl, two compounds that can generate reactive oxygen species (ROS). Menadione causes the direct production of reactive oxygen within the cell and is a very strong inducer of a ROS effect (Sun, J S et. al. Cell Mol Life Sci (1997) vol 53 pp 967-76). 4-aminobiphenyl is believed to require metabolic conversion to a quinine-like structure before being able to induce the formation of a ROS (Makena, P and Chung, K T. Environ. Mol. Mutagen. (2007), vol 48, pp 404-413).
(§2) A 40 mM solution of 4-aminobiphenyl (Sigma A2898-1g) was made by dissolving 2.5 mg in 375 μl of DMSO (Fluka) to create a 40 mM solution. 50 μl of 4 mg/ml PBI 4458 in DMSO was diluted to 1 ml with HBSS buffer (Invitrogen), and 100 μl added to wells A1 and A2 of a microtiter plate. A 10 μl sample of 40 mM 4-aminobiphenyl was mixed with 190 μl of the remaining PBI 4458 in HBSS, and 60 μl added to wells B1 and B2 and 30 μl to wells C1 and C2. A 10 μl sample of 40 mM menadione in DMSO was mixed with 190 μl of the remaining PBI 4458 in HBSS, and 60 μl added to wells D1 and D2 and 30 μl to E1 and E2. The volume in wells B1 to E2 was then adjusted to 100 μl by addition of remaining PBI 4458 in HBSS.
(§3) 50 μl of 4 mg/ml PBI 4480 in DMSO was diluted to 1 ml with HBSS buffer, and 100 μl placed in wells A3 and A4 of the microtiter plate. A 10 μl sample of 40 mM 4 aminobiphenyl was mixed with 190 μl of the remaining PBI 4480 in HBSS, and 60 μl added to wells B3 and B4 and 30 μl to wells C3 and C4. A 10 μl sample of 40 mM menadione in DMSO was mixed with 190 μl of the remaining PBI 4480 in HBSS, and 60 μl added to wells D3 and D4 and 30 μl added to wells E3 and E4. The volume in wells B3 to E4 was then adjusted to 100 μl by addition of left over PBI 4480 in HBSS.
(§4) 50 μl of 4 mg/ml PBI 3048 in DMSO was diluted to 1 ml with HBSS, and 100 μl added to wells A5 and A6 of the microtiter plate. A 10 μl sample of 40 mM 4 aminobiphenyl was mixed with 190 μl of the remaining PBI 3048 in HBSS, and 60 μl added to wells B5 and B6 and 30 μl added to wells C5 and C6. A 10 μl sample of 40 mM menadione in DMSO was mixed with 190 μl of the remaining PBI 3048 in HBSS, and 60 μl added to wells D5 and D6 and 30 μl added to wells E5 and E6. The volume in wells B5 to E6 was then adjusted to 100 μl by addition of the remaining PBI 3048 in HBSS.
(§5) Two cell culture plates were seeded with cells resuspended in HBSS. One plate contained 20,000 Jurkat cells/well in wells A1-H6. The other plate contained 20,000 HepG2 cells/well in wells A1-H6. Both plates were incubated overnight in DMEM with 10% fetal bovine serum (FBS). The media from the HepG2 cells was removed, discarded, and replaced with 50 μl of HBSS. A 50 μl sample of wells A1-H6 from the plate with the various PBI compounds was transferred to the corresponding wells in the two cell culture plates, and incubated for 60 minutes in a 37° C., 5% CO2 incubator.
(§6) 50 μl of LDR (Example 23) and 25 μl of 1 mM D-cysteine in 100 mM HEPES buffer, pH 7.5 was added to all wells of a new luminometer plate. After incubation, a 25 μl sample of wells A1-H6 containing Jurkat cells was added to wells A1-H6 of the new luminometer plate, and a 25 μl sample of wells A1-H6 containing HepG2 cells was added to wells A7-H12 of the new luminometer plate. The plate was incubated at room temperature for 15 minutes, and bioluminescence detected on a GloMax® luminometer.
(§7) The bioluminescence from the duplicate samples was averaged and compared to the values of the cells in A row (Table 4).

HepG2 cells = experiment: Detection of reactive oxygen generation in cells treated with menadione or 4-aminobiphenyl, HepG2; format: cell-based; details: for response of signal to menadione or 4-aminobiphenyl (in words): HepG2; for averaged bioluminescence: 60 minutes 37° C.
Experimental: as §1, §2, §3, §4, §5, §6, §7

| SMILES | response of signal to menadione or 4-aminobiphenyl (in words) (Jurkat cells) | averaged bioluminescence (Jurkat cells; 300 μM 4ABP) | averaged bioluminescence (Jurkat cells; 300 μM Menadione) | averaged bioluminescence (Jurkat cells; 600 μM 4ABP) | averaged bioluminescence (Jurkat cells; 600 μM Menadione) | averaged bioluminescence (Jurkat cells; No Effector) | response of signal to menadione or 4-aminobiphenyl (in words) (HepG2 cells) | averaged bioluminescence (HepG2 cells; HepG2, 300 μM 4ABP) | averaged bioluminescence (HepG2 cells; HepG2, 300 μM Menadione) | averaged bioluminescence (HepG2 cells; HepG2, 600 μM 4ABP) | averaged bioluminescence (HepG2 cells; HepG2, 600 μM Menadione) | averaged bioluminescence (HepG2 cells; HepG2, No Effector) |
| --- | --- | --- | --- | --- | --- | --- | --- | --- | --- | --- | --- | --- |
| CC1(C)OB(/C=C/COc2ccc3nc(C#N)sc3c2)OC1(C)C [PBI 4458, (E)-6-((3-(4,4,5,5-tetramethyl-1,3,2-dioxaborolan-2-yl)allyl)oxy)-benzo[d]thiazole-2-carbonitrile] | above those for the cells that were not given any effector | 213,059 | 742,717 | 195,096 | 895,269 | 174,206 | above those for the cells that were not given any effector | 163,031 | 622,230 | 169,952 | 728,404 | 117,111 |
| O=C(O)C1CSC(c2nc3ccc(OCc4ccc(B(O)O)cc4)cc3s2)=N1 (stereo not drawn) [PBI 3048] | do not show as clear of a response | 363,182 | 434,344 | 366,188 | 403,013 | 413,753 | do not show as clear of a response | 364,353 | 426,802 | 383,471 | 408,177 | 407,917 |
| CC1(C)OB(c2ccc(COc3ccc4nc(C#N)sc4c3)c3ccccc23)OC1(C)C [PBI 4480, 6-((4-(4,4,5,5-tetramethyl-1,3,2-dioxaborolan-2-yl)naphthalen-1-yl)methoxy)benzo[d]thiazole-2-carbonitrile] | do not show as clear of a response | 29,810 | 29,806 | 29,277 | 27,535 | 34,646 | do not show as clear of a response | 20,574 | 20,788 | 21,023 | 20,509 | 19,627 |
